Results taken from the METLIN SMRT retention time set (Domingo-Almenara et al. 2019).

Test: gradient 5% acetonitrile 3 min, to 50% in 2 min, to 85% in 15 min, held 3 min, 100 µL/min
Conditions: column: Zorbax Extend-C18 2.1 x 50 mm; eluents: water / acetonitrile, 0.1% formic acid
Outline: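 Using water and acetonitrile that each contained 0.1% formic acid, mixtures of ~100 pure standards were separated at 100 μL/min on a Zorbax Extend-C18 column (2.1 × 50 mm, 1.8 μm). The HPLC fed a quadrupole time-of-flight mass spectrometer working in positive and negative ionization mode, with dead and dwell volumes of 40 μL and 900 μL. Data were acquired over 3 months. Retention time was read from computationally picked adduct peaks after manual inspection of each.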

| SMILES | RP-LC retention time [s] |
| --- | --- |
| Cc1ccn2c(NC(=O)COc3ccccc3)c(-c3ccccc3)nc2c1 | 683 |
| CCn1c(=O)c2ccn(CC(=O)Nc3cc(C)ccn3)c2n(CC)c1=O | 644 |
| CCOc1ccc(S(=O)(=O)N2CCc3c(c(-c4nnc(SCC)n4CC)nn3C)C2)cc1 | 961 |
| CC(C)NC(=O)c1ccc(OCC2CCCN2C(=O)c2cc(F)ccc2Cl)cc1 (stereo not given) | 881 |
| COc1cccc(S(=O)(=O)N2CCCN(C)c3ccccc32)c1 | 976 |
| COc1cc(C2CC(=O)c3c(C)nc(N4CCN(C)CC4)nc3C2)cc(OC)c1OC (stereo not given) | 629 |
| CCc1ccc(-n2cc(C(=O)O)nn2)cc1 | 727 |
| Cc1cccc(S(=O)(=O)N2CCc3nc[nH]c3C2)c1 | 590 |
| COc1ccc(Cn2c(=O)c3sccc3n(Cc3nc(-c4ccc(F)cc4)no3)c2=O)cc1 | 1080 |
| COc1nn(C)cc1C(=O)Nc1ccc(Cl)c(Cl)c1 | 864 |
| Cc1nnc(NC(=O)c2ccc3c(c2)OCO3)s1 | 646 |
| COc1ccc2[nH]cc(CCNC(=O)Cn3nc(C)c4c(C)onc4c3=O)c2c1 | 698 |
| CCOC(=O)c1c(NC(=O)CSc2n[nH]c(N)n2)sc(C)c1C | 696 |
| CCN1C(=O)c2cc(C(=O)NCc3ccc(F)cc3)nn2CC1(C)C(=O)NC1CCCC1 (stereo not given) | 734 |
| CCOC(=O)c1sc(NC(=O)c2cc(C)n(C)n2)nc1-c1ccccc1 | 928 |
| O=C(c1ccc2nc[nH]c2c1)N1CCCN(c2cc(-c3ccc(Cl)cc3)[nH]n2)CC1 | 620 |
| C=Cc1ccc(Cn2nc3ccc(S(=O)(=O)N4CCOCC4)cn3c2=O)cc1 | 864 |
| COc1ccc(N2CCN(c3nc4ccccc4cc3-c3noc(C)n3)CC2)cc1 | 681 |
| O=C(NCCCN1CCOCC1)c1cc2n(n1)CCCN(Cc1ccccc1)C2=O | 594 |
| CCc1c(C(=O)O)nnn1-c1cccc(OC)c1 | 704 |
| Cc1nc(-c2cc(S(=O)(=O)N3CCCc4ccccc43)c(C)s2)sc1C | 1290 |
| CCN1c2ccccc2C(=O)NC12CCN(C(=O)c1ccc3c(c1)OCO3)CC2 | 740 |
| Cc1cccc(CN2N=C(C(=O)N3CCC(C)CC3)S(=O)(=O)c3ccccc32)c1 | 1090 |

| SMILES | RP-LC retention time [s] |
| --- | --- |
| COc1cccc(CNC(=O)Cn2cnc3nc(N4CCC(C(=O)NC5CC5)CC4)sc3c2=O)c1 | 646 |
| Cc1cc(NC(=O)NCCCSc2nc3ccccc3s2)no1 | 805 |
| O=C(NCC1CCCO1)c1cnn2c(-c3ccc4c(c3)OCO4)ccnc12 (stereo not given) | 780 |
| Cc1ccccc1NC(=O)N1CCC(CC(=O)N2CCCCC2)CC1 | 732 |
| Cc1ccc(-c2cc3c4nn(CC(=O)NCc5ccco5)c(=O)n4ccn3n2)cc1C | 874 |
| Cc1nsc2ncc(C(=O)N3CCOCC3)c(N3CCC(C(=O)Nc4ccccc4Br)CC3)c12 | 813 |
| O=C(C1c2ccccc2CCN1C(=O)C1CC1)N1CCN(c2ccccc2F)CC1 (stereo not given) | 947 |
| O=C(Nc1ccc(Cl)cc1)C1CCN(S(=O)(=O)c2ccc3[nH]c(=O)sc3c2)CC1 | 854 |
| Cc1noc(C)c1-c1ccc(S(=O)(=O)N2CCN(c3cccc(Cl)c3)CC2)cc1 | 1160 |
| CCOc1ccc(NC(=O)C2CCCN2S(=O)(=O)c2cc3c(cc2Cl)NC(=O)CO3)cc1 (stereo not given) | 785 |
| Cc1cc(C(=O)NC2CC2)c2cc(C(C)C)ccc2n1 | 636 |
| O=C(NCc1cccc(Cl)c1)C1CCCN(c2nccnc2Oc2ccccc2)C1 (stereo not given) | 1020 |
| COc1ccc(N2C=C(C(=O)N3CCCC3)S(=O)(=O)c3ccc(F)cc32)cc1 | 736 |
| c1ccc(-c2ccc(CNCC3CCCO3)o2)cc1 (stereo not given) | 642 |
| COc1ccc(OC)c(S(=O)(=O)N2CCOCCNC(=O)[C@H]3CCCC[C@H]32)c1 | 772 |
| Cc1ccc(C2CC(=O)c3cnc(N4CCN(c5ccccn5)CC4)nc3C2)cc1 (stereo not given) | 727 |
| Cc1cc(C)cc(N2CCC(N)C2=O)c1 (stereo not given) | 605 |
| Cc1cccc(Sc2nccnc2N2CCC(C(=O)NCCC3=CCCCC3)CC2)c1 | 1220 |
| CC(=O)Nc1ccc(-c2noc(C3CCCN(C(=O)CCC4CCCC4)C3)n2)cc1 (stereo not given) | 923 |
| CN1CCN(c2ccc(-c3nc(-c4cccc(F)c4)no3)cn2)CC1 | 685 |
| CCn1cc(S(=O)(=O)N2CCC(C3CCN(C(=O)NC)CC3)C2)cn1 (stereo not given) | 622 |
| CCCn1nnc(NCc2ccc(-c3cccc(Cl)c3C)o2)n1 | 1130 |
| COC1C(=O)N(c2cccc(F)c2)C12CCN(S(=O)(=O)c1cccs1)CC2 (stereo not given) | 937 |

| SMILES | RP-LC retention time [s] |
| --- | --- |
| Cc1csc(-c2ccc(N3CCN(C(=O)c4ccc(F)c(F)c4)CC3)nc2)n1 | 846 |
| c1ccc(-c2csc(NCc3ccco3)n2)cc1 | 912 |
| COc1ccc(C(=O)N2CCCC(COc3ccc(C(=O)NC(C)C)cc3)C2)c(C)c1 (stereo not given) | 842 |
| Cc1noc(-c2ccnc(-n3ncc(C(=O)N4CCSCC4)c3C)c2)n1 | 785 |
| CC1CCN(CCNS(=O)(=O)c2ccccc2-c2nc(-c3ccccc3)no2)CC1 | 735 |
| COc1cc(OC)c(NC(=O)C(=O)c2ccc[nH]2)cc1Cl | 978 |
| COc1ccc(OC)c(-c2cn3ccn(-c4cc(C)cc(C)c4)c(=O)c3n2)c1 | 975 |
| COc1ccc(CNC(=O)CSc2nnc(-c3ccccc3)n2-n2cccc2)cc1 | 775 |
| COc1ccc(C2(C(=O)NCC34CCCC=C3NC(=O)CC4)CC2)cc1 (stereo not given) | 776 |
| Cc1ccc(C)c(CS(=O)(=O)N2CCc3nc(-c4ccc(F)cc4)ncc3C2)c1 | 1160 |
| CCN(CC)C(=O)c1ccc2oc(CN3CCN(C(=O)NCC(C)C)CC3)nc2c1 | 624 |
| CC(=O)Nc1onc(C)c1-c1ccc(C)c(S(=O)(=O)NCCc2ccc(S(N)(=O)=O)cc2)c1 | 663 |
| CCOc1ccc(-c2nc(-c3ccc4nnn(C)c4c3)no2)cc1 | 1070 |
| CSc1ccc(CN2CCN(c3cnn4c(C5CC5)nnc4c3)CC2)cc1 | 603 |
| CCn1cc(C)c(C(=O)O)c1CC(=O)NCCN1CCOCC1 | 582 |
| O=C(Nc1ccccc1)c1cccn1Cc1noc(-c2ccccc2)n1 | 1020 |
| Cc1ccn2cc(C(=O)NCCc3ccc(S(N)(=O)=O)cc3)nc2c1 | 551 |
| CCc1cccc(NC(=O)C2CC(=O)N(c3ccc4oc(C)nc4c3)C2)c1 (stereo not given) | 785 |
| O=C(C1CCCC1)N1CC(c2nc(-c3ccccc3)no2)C2(CCOCC2)C1 (stereo not given) | 923 |
| O=C(C1=CN(c2cc(Cl)cc(Cl)c2)c2cc(F)ccc2S1(=O)=O)N1CCOCC1 | 875 |
| CC(C)(C)OC(=O)NC1[C@H]2CNC[C@@H]12 (stereo not given in full) | 609 |
| O=C(c1ccsc1)N1CCN(c2nc(CN3CCCCC3)cs2)CC1 | 597 |
| Cc1ccc(-c2nc(Nc3ccc(Br)cc3)sc2CC(=O)O)c(C)c1 | 1090 |

| SMILES | RP-LC retention time [s] |
| --- | --- |
| Cc1nn2c(CNS(=O)(=O)c3ccc(F)cc3F)c(-c3ccccc3)nc2s1 | 867 |
| O=C1CC(c2noc(Cc3ccc(F)cc3)n2)CN1c1ccc(F)cc1 (stereo not given) | 933 |
| Cc1cc2nn(CC(=O)NCc3ccc4c(c3)OCO4)c(=O)n2c(-c2ccccc2)n1 | 600 |
| COCc1nnc2n1CCC(NC(=O)C1CC=CC1)CC2 (stereo not given) | 587 |
| Cc1ccc(CCNC(=O)Cn2c(C)nc3onc(C)c3c2=O)cc1 | 787 |
| Cc1ccc(Cl)cc1N1C(=O)CN(S(C)(=O)=O)CC1(C)C(=O)NCc1ccc(F)cc1 (stereo not given) | 814 |
| Cc1ccc(-c2nnc(N3CCC(C(=O)NCCC(C)C)CC3)o2)cc1 | 881 |
| CCOc1ccc2ncc(S(=O)(=O)c3ccc(OC)cc3)c(N3CCOCC3)c2c1 | 919 |
| CCC(=O)NCc1cnn(-c2ccc(C(=O)Nc3ccc4c(c3)OCCO4)cc2)c1 | 702 |
| COc1cc(CNCCSc2nnnn2C)cc(Br)c1OCc1ccccc1 | 744 |
| COCCC(=O)N1CCC2(CCC2O)CC1 (stereo not given) | 593 |
| CC(C)N1CCN(C(=O)C2CC(=O)N(CCc3ccccc3)C2)CC1 (stereo not given) | 573 |
| COc1ccc(CC(=O)N2CCCC2c2nc(-c3ccc(OC)c(OC)c3)no2)cc1OC (stereo not given) | 801 |
| CC(C)(C)NC(=O)c1cc2c(n(-c3ccc(C(F)(F)F)cc3)c1=O)CCCC2=O | 949 |
| O=C(NCc1ccccc1)C1CCc2sc(C(=O)N3CCCC3)cc2C1 (stereo not given) | 702 |
| COCCN1C(=O)CCc2c(C)nc(-c3cccnc3)nc21 | 614 |
| O=C1C2N=NN(Cc3nc(-c4cccc(Br)c4)no3)C2C(=O)N1c1ccc2c(c1)CCC2 (stereo not given) | 1130 |
| Cc1ccc(-c2ccc(N3CCCC(C(=O)NC4CC4)C3)nn2)cc1 (stereo not given) | 631 |
| Cc1ccc(CCC(=O)Nc2ccc(SC(F)F)cc2)o1 | 919 |
| CNC(=O)[C@@H]1CN(S(=O)(=O)c2ccc(Cl)s2)C[C@H]1c1n[nH]c(C)n1 | 656 |
| Cc1cc(C)cc(NC(=O)C2CCc3sc(C(=O)N4CCOCC4)cc3C2)c1 (stereo not given) | 856 |
